Results: patent publication US10624278B2, “Cultivation method for the rapid propagation of Davidia involucrata winter buds” (Mianyang Teachers' College, priority 2017, dated 2020)

Key:
Type in all cases: in vivo
[1] = tested on: Davidia involucrata saplings; test: rooting cultivation (orthogonal experiment); parameters: unit not given here; conditions: for K1: mean rooting ratio at level 1 of the factor (¼MS, IBA 1.0, 6-BA 0, AC 0.5); for K2: mean rooting ratio at level 2 of the factor (WPM, IBA 2.0, 6-BA 1.0, AC 1.0); for K3: mean rooting ratio at level 3 of the factor (White, IBA 3.0, 6-BA 1.5, AC 1.5); for R: range of K values of the factor, rooting ratio
Method: inoculating the plurality of Davidia involucrata saplings in good condition obtained in step (5) in the White, WPM and 1/4 MS medium (See Table 10) containing different concentrations of IBA, 6-BA and AC at the temperature of 24±1° C. and illuminating for 10 hours per day at 2000 1× to cultivate the plurality of Davidia involucrata saplings in good condition obtained in step (5) until rooting. Analyzing the rooting results (See Table 11).

[2] = tested on: Davidia involucrata saplings; test: cultivating the strong seedlings; parameters: unit not given here; conditions: for K1: mean average height at level 1 of the factor (GA3 0.5, NAA 0.5, 6-BA 0.2); for K2: mean average height at level 2 of the factor (GA3 1.0, NAA 1.0, 6-BA 0.6); for K3: mean average height at level 3 of the factor (GA3 1.5, NAA 1.5, 6-BA 1.0); for R: range of K values of the factor, average height
Method: inoculating the plurality of Davidia involucrata saplings obtained in step (4) in nine groups of WPM medium (See Table 8) containing different concentrations of NAA, 6-BA and GA3 at the temperature of 24±1° C. and illuminating for 10 hours per day at 2000 1× to cultivate the plurality of Davidia involucrata saplings obtained in step (4) for 36 days. The amount of AC added for each group of WPM medium is 1.0 g/L. Calculating the average height of the saplings (See Table 9).

[3] = tested on: Davidia involucrata winter buds; test: disinfecting and sterilizing of the winter buds
Method: disinfecting and sterilizing of the winter buds: immersing the plurality of winter buds collected in the field into a detergent solution with a concentration of […] for 2 minutes, gently cleaning the bud scales using a soft brush, rinsing for 2 hours with running water, and then immersing the winter buds using the 0.1% mercuric chloride solution for 20 minutes on a clean bench, rinsing with sterile water for more than 5 times, blotting up the water on the surface of the explants with sterile filter paper, stripping up all the scales of the winter buds using a tweezer to obtain the buds, treating with 75% ethanol and mercuric chloride solution or treating with mercuric chloride solution only. Wherein each treatment is inoculated into 30 bottles and 2 explants in each bottle. The specific progress is as follows: […]

[4] = Disposal 1: mercuric chloride only, treating time 4 min
[5] = Disposal 2: mercuric chloride only, treating time 5 min
[6] = Disposal 3: mercuric chloride only, treating time 6 min
[7] = Disposal 4: mercuric chloride only, treating time 7 min
[8] = Disposal 5: mercuric chloride only, treating time 8 min

Compound | K1 [1] | K2 [1] | K3 [1] | R [1] | K1 [2] | K2 [2] | K3 [2] | R [2] | also measured
c1ccc(CNc2ncnc3[nH]cnc23)cc1 [6-BA] | 48.340 | 67.907 | 57.150 | 19.567 | 1.820 | 1.697 | 1.897 | 0.200 | –
C=C1C[C@]23C[C@@]1(O)CC[C@H]2[C@@]12C=C[C@H](O)[C@@](C)(C(=O)O1)[C@H]2[C@@H]3C(=O)O [GA3] | – | – | – | – | 1.663 | 2.037 | 1.713 | 0.374 | –
O=C(O)Cc1cccc2ccccc12 [NAA] | – | – | – | – | 1.537 | 2.067 | 1.810 | 0.530 | –
O=C(O)CCCc1c[nH]c2ccccc12 [IBA] | 55.663 | 62.337 | 55.397 | 6.940 | – | – | – | – | –
[Cl][Hg][Cl] [0.01% mercuric chloride solution, mercuric chloride] | – | – | – | – | – | – | – | – | Death rate (%) [3, 4]: 3%; Pollution rate (%) [3, 4]: 38%; Death rate (%) [3, 5]: 5%; Pollution rate (%) [3, 5]: 27.2%; Death rate (%) [3, 6]: 6%; Pollution rate (%) [3, 6]: 18%; Death rate (%) [3, 7]: 36%; Pollution rate (%) [3, 7]: 16%; Death rate (%) [3, 8]: 45%; Pollution rate (%) [3, 8]: 10%
